Reference: ChEMBL document CHEMBL4311992, “Discovery of 3-(((9H-purin-6-yl)amino)methyl)-4,6-dimethylpyridin-2(1H)-one derivatives as novel tubulin polymerization inhibitors for treatment of cancer” (Eur J Med Chem, 2019)
Active and inactive are the calls of the source. The rule behind the calls is not given here.

Assays:
[1] = target: Mitogen-activated protein kinase kinase kinase kinase 4 (Homo sapiens) (UniProt O95819); assay: Inhibition of recombinant human MAP4K4 (1 to 328 residues) assessed as residual activity at 10 uM using RLGRDKYKTLRQIRQ as substrate measured after 40 mins in presence of [gamma33P]ATP by scintillation counting method
[2] = target: G protein-coupled receptor kinase 3 (Homo sapiens) (UniProt P35626); assay: Inhibition of recombinant full-length human GRK3 assessed as residual activity at 10 uM using casein as substrate measured after 40 mins in presence of [gamma33P]ATP by scintillation counting method
[3] = target: MAP/microtubule affinity-regulating kinase 3 (Homo sapiens) (UniProt P27448); assay: Inhibition of recombinant full-length human MARK3 assessed as residual activity at 10 uM using KKKVSRSGLYRSPSMPENLNRPR as substrate measured after 40 mins in presence of [gamma33P]ATP by scintillation counting method
Homo sapiens [4] = organism: Homo sapiens; assay: Inhibition of recombinant human MARK1 T20S mutant (2 to end residues) assessed as residual activity at 10 uM using KKKVSRSGLYRSPSMPENLNRPR as substrate measured after 40 mins in presence of [gamma33P]ATP by scintillation counting method
[5] = target: Calcium/calmodulin-dependent protein kinase type IV (Homo sapiens) (UniProt Q16566); assay: Inhibition of recombinant full-length human CaMK4 assessed as residual activity at 10 uM using calmodulin as substrate measured after 40 mins in presence of [gamma33P]ATP by scintillation counting method
[6] = system: Tyrosine-protein kinase ABL1 (Homo sapiens), P00519 [M351T]; assay: Inhibition of recombinant human ABL M351T mutant (27 to end residues) assessed as residual activity at 10 uM using EAIYAAPFAKKK as substrate measured after 40 mins in presence of [gamma33P]ATP by scintillation counting method
[7] = system: RAC-gamma serine/threonine-protein kinase (Homo sapiens), Q9Y243 [S472D]; assay: Inhibition of recombinant full-length human PKBgamma S472D mutant (117 to end residues) assessed as residual activity at 10 uM using GRPRTSSFAEGKK as substrate measured after 40 mins in presence of [gamma33P]ATP by scintillation counting method
[8] = target: Serine/threonine-protein kinase NLK (Homo sapiens) (UniProt Q9UBE8); assay: Inhibition of recombinant human NLK (121 to end residues) assessed as residual activity at 10 uM using myelin basic protein as substrate measured after 40 mins in presence of [gamma33P]ATP by scintillation counting method
[9] = system: Protein kinase C eta type (Homo sapiens), P24723 [UNDEFINED MUTATION]; assay: Inhibition of recombinant human PKCeta V108L/G109R/L392Q mutant (2 to end residues) assessed as residual activity at 10 uM using ERMRPRKRQGSVRRRV as substrate measured after 40 mins in presence of [gamma33P]ATP by scintillation counting method
[10] = system: Mast/stem cell growth factor receptor Kit (Homo sapiens), P10721 [V560G]; assay: Inhibition of recombinant human c-Kit V560G mutant (544 to end residues) assessed as residual activity at 10 uM using GGMEDIYFEFMGGKKK as substrate measured after 40 mins in presence of [gamma33P]ATP by scintillation counting method
Homo sapiens [11] = organism: Homo sapiens; assay: Inhibition of recombinant full-length human JNK2alpha2 S51N mutant assessed as residual activity at 10 uM using ATF2 as substrate measured after 40 mins in presence of [gamma33P]ATP by scintillation counting method
[12] = target: Focal adhesion kinase 1 (Homo sapiens) (UniProt Q05397); assay: Inhibition of recombinant human FAK (411 to 686 residues) assessed as residual activity at 10 uM using EEEEYEEEEEEYYIIEEEEEEYEEEEEEYYEEEEEEKKKK as substrate measured after 40 mins in presence of [gamma33P]ATP by scintillation counting method
[13] = target: Mitogen-activated protein kinase kinase kinase 3 (Homo sapiens) (UniProt Q99759); assay: Inhibition of recombinant full-length human MEKK3 assessed as residual activity at 10 uM using myelin basic protein as substrate measured after 40 mins in presence of [gamma33P]ATP by scintillation counting method
[14] = target: Phosphatidylinositol 4-phosphate 3-kinase C2 domain-containing subunit alpha (Homo sapiens) (UniProt O00443); assay: Inhibition of recombinant human PI3KC2alpha (299 to end residues) assessed as residual activity at 10 uM using phosphatidylinositol as substrate measured after 40 mins by HTRF assay
[15] = target: Homeodomain-interacting protein kinase 1 (Homo sapiens) (UniProt Q86Z02); assay: Inhibition of recombinant human activated HIPK1 (158 to 555 residues) assessed as residual activity at 10 uM using myelin basic protein as substrate measured after 40 mins in presence of [gamma33P]ATP by scintillation counting method
[16] = Cardiotoxicity in nude BALB/c mouse at 80 mg/kg, po administered once daily for 4 weeks measured post-last dose by hematoxylin and eosin staining-based assay; format: toxicity, organism-based; details: in vivo, 672 h
[17] = target: Serine/threonine-protein kinase VRK1 (Homo sapiens) (UniProt Q99986); assay: Inhibition of human VRK1 assessed as residual activity at 10 uM by radiometric method
[18] = target: Serine/threonine-protein kinase pim-3 (Homo sapiens) (UniProt Q86V86); assay: Inhibition of recombinant human Pim3 (2 to end residues) assessed as residual activity at 10 uM using RSRHSSYPAGT as substrate measured after 40 mins in presence of [gamma33P]ATP by scintillation counting method
[19] = target: Serine/threonine-protein kinase 16 (Homo sapiens) (UniProt O75716); assay: Inhibition of human STK16 assessed as residual activity at 10 uM by radiometric method
[20] = target: Casein kinase 2 (Homo sapiens) (UniProt P67870+P68400+P19784+Q8NEV1); assay: Inhibition of human CK2 assessed as residual activity at 10 uM; format: protein assay
SW-620 = assay: Cell cycle arrest in human SW620 cells assessed as up regulation of cdc25 expression up to 150 nM after 24 hrs by Western blot analysis; format: functional, cell-based
[21] = target: Transcription initiation factor TFIID subunit 1-like (Homo sapiens) (UniProt Q8IZX4); assay: Inhibition of human TAF1L (1428 to end residues) using RRRFRPASPLRGPPK as substrate measured after 120 mins in presence of [gamma33P]ATP by scintillation counting method; parameters: scale not given: the % may be the effect or the level left
Tubulin (Homo sapiens) = Tubulin (Homo sapiens) (UniProt P68371+Q9H4B7+P0DPH7+P68366+Q13509+Q71U36+P04350+Q3ZCM7+P07437+P68363+Q9BQE3+Q6PEY2+Q13885+Q9BVA1+Q9BUF5); assay: Disruption of microtubule network in human HCT116 cells assessed as microtubule disorganization at 50 nM for 18 hrs by FITC/DAPI staining-based confocal microscopic analysis; format: cell-based

Focal adhesion kinase 1 (Homo sapiens), sequence (Q05397 2-1052 limits assumed): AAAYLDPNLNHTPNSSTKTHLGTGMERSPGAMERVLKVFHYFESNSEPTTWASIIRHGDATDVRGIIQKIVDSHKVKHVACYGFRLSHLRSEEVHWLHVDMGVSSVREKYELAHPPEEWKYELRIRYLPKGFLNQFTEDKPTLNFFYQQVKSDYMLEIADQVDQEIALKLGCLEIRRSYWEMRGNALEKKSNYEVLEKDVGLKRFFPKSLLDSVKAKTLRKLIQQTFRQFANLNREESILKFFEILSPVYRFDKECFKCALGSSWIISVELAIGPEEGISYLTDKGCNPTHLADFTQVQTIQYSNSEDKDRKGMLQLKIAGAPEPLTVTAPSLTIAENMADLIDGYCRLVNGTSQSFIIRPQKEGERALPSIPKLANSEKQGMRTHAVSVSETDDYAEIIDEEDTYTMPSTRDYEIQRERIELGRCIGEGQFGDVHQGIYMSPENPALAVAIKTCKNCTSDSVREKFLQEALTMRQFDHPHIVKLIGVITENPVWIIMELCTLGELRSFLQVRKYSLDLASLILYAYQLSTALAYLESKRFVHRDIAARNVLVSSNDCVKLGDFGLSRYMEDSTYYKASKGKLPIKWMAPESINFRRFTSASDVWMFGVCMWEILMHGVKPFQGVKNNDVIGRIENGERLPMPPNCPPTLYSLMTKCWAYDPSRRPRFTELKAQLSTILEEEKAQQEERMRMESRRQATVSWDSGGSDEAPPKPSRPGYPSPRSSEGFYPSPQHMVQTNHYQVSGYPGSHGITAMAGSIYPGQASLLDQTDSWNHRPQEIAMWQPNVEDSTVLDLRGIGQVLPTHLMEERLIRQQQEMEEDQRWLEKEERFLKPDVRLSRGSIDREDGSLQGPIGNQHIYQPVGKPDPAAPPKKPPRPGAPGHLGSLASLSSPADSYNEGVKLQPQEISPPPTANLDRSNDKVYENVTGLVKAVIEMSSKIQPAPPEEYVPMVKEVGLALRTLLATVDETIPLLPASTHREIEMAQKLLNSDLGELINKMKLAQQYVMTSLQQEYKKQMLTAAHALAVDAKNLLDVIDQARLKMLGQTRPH
Phosphatidylinositol 4-phosphate 3-kinase C2 domain-containing subunit alpha (Homo sapiens), sequence (O00443 whole entry, the tested form may be a part): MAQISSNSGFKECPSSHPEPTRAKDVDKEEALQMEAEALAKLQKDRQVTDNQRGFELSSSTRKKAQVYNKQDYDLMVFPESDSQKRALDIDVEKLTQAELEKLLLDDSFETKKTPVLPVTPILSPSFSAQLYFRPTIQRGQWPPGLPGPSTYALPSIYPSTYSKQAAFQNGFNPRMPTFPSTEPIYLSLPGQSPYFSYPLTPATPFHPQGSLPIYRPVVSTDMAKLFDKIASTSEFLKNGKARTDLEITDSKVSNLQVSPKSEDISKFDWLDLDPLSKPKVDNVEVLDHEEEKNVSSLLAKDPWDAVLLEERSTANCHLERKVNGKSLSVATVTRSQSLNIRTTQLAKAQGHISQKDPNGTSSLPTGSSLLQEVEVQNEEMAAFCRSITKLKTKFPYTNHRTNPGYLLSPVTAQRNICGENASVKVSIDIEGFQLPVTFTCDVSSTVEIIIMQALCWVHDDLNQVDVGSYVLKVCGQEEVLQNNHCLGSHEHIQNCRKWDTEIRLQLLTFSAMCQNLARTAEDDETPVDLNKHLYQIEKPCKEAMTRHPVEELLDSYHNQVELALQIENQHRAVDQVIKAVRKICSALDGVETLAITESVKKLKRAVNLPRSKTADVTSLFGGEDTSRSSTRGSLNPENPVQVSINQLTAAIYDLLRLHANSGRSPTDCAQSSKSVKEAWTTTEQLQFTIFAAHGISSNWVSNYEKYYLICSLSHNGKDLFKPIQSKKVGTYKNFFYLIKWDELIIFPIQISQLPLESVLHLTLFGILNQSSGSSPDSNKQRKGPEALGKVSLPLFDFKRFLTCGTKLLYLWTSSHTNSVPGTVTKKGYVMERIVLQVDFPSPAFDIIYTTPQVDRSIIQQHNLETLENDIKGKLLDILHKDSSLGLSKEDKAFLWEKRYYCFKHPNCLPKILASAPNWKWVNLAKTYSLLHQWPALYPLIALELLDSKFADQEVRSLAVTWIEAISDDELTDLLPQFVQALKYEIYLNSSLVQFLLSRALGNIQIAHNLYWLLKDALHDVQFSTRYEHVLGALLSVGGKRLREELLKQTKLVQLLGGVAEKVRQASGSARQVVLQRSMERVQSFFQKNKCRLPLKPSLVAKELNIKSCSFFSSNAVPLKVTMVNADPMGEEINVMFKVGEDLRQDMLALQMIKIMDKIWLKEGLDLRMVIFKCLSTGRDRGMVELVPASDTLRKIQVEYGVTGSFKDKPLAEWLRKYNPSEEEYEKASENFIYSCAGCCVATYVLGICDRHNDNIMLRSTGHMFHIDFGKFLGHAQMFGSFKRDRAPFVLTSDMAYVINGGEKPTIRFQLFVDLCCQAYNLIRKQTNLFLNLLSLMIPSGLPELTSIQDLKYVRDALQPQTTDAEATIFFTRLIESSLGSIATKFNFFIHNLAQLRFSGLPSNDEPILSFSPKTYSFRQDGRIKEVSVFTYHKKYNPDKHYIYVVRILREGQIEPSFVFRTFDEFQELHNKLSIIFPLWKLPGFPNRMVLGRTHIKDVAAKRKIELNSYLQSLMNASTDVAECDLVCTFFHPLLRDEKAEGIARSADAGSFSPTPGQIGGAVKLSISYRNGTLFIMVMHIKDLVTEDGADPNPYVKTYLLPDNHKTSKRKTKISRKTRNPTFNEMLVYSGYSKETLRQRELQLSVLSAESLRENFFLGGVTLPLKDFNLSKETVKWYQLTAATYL
Calcium/calmodulin-dependent protein kinase type IV (Homo sapiens), sequence (Q16566 whole entry): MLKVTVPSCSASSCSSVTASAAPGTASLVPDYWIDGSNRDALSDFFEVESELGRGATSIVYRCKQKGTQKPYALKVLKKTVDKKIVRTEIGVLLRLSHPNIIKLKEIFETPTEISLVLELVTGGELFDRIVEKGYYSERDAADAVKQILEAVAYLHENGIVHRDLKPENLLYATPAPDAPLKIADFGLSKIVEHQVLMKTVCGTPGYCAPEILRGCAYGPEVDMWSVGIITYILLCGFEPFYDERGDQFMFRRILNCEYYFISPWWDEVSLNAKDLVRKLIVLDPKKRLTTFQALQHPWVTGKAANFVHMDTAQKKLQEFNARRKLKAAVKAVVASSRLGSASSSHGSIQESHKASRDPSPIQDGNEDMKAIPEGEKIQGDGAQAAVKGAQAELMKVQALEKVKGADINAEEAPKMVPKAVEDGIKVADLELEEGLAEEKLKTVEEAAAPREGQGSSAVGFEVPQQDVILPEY
Mitogen-activated protein kinase kinase kinase kinase 4 (Homo sapiens), sequence (O95819 2-1239 limits assumed): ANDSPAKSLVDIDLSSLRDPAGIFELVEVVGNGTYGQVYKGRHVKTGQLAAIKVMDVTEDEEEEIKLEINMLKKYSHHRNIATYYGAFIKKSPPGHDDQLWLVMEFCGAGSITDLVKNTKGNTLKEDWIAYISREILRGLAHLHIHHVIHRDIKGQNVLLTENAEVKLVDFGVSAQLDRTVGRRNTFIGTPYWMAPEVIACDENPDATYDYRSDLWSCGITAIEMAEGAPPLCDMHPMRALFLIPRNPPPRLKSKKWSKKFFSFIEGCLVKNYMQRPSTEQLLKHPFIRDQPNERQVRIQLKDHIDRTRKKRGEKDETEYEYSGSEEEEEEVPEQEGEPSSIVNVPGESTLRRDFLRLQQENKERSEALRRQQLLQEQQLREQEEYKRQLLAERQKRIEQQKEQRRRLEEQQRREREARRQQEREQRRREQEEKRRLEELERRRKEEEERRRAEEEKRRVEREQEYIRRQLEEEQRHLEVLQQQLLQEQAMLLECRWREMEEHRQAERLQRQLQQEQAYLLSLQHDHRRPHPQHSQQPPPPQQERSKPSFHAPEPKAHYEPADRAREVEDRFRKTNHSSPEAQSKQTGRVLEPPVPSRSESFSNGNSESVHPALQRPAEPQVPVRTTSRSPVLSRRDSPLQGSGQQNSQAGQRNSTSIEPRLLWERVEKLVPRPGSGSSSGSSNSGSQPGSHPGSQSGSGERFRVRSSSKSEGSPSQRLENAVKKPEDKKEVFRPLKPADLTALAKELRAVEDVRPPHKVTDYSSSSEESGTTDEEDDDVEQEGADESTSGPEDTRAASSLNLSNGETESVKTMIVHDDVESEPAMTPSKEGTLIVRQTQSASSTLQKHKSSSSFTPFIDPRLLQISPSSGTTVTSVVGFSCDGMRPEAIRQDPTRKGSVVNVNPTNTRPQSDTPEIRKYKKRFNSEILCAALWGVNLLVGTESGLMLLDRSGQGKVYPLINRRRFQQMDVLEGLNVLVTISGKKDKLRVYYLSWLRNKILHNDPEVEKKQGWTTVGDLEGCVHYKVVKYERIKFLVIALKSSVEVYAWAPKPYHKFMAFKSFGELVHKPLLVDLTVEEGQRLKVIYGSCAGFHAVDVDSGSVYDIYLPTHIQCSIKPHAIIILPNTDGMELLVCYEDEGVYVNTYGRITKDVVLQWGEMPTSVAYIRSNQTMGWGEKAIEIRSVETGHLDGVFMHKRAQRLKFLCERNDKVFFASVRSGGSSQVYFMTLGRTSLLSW
Serine/threonine-protein kinase 16 (Homo sapiens), sequence (O75716 whole entry): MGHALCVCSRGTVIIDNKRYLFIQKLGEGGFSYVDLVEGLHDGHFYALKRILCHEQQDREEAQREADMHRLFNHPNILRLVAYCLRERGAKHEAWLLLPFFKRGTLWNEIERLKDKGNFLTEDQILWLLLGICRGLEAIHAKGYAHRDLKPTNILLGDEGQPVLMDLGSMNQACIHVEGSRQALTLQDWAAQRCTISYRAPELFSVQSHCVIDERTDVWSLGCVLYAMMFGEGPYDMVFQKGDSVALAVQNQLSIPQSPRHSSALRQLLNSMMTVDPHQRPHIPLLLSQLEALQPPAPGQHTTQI

Compound `Cc1cc(C)c(CNc2nc(Cl)nc3c2ncn3C2CCCC2)c(=O)[nH]1` has an Activity [1] of 114%, an Activity [2] of 100% and an Activity [3] of 90%. The Activity (Homo sapiens [4]) was 112%, the Activity [5] was 121% and the Activity [6] was 96.5%. It also gave an Activity [7] of 91%, an Activity [8] of 93.5% and an Activity [9] of 98.5%. For the same compound, the Activity [10] was 95.5%, the Activity (Homo sapiens [11]) was 103% and the Activity [12] was 104%. The Activity [13] was 106%, the Activity [14] was 112% and the Activity [15] was 100%. The Activity [16] was “Non-Toxic”, the Activity [17] was 92.5% and the Activity [18] was 107%. The Activity [19] was 102%, the Activity [20] was 111% and the Activity (SW-620) was “Active”. For the same compound, the Activity [21] was 108% and the Activity (Tubulin (Homo sapiens)) was “Active”.
